Data as given in ChEMBL document CHEMBL4368855, “Novel tricyclic glycal-based TRIB1 inducers that reprogram LDL metabolism in hepatic cells” (Medchemcomm, 2018).
Active and inactive are the calls of the source. The calls are words filed in the database; no cut-off is given here.

How the values were obtained:
[1] = target: T1, Mitogen-activated protein kinase; ERK1/ERK2 (Homo sapiens) (UniProt P27361+P28482); experiment: Activation of ERK1/2 phosphorylation in human HepG2 cells assessed as ratio of phosphorylated ERK1/2 to total ERK1/2 at 2 uM after 6 hrs by Western blot analysis relative to control; assay type: cell-based
T1 sequence (P27361 whole entry, looked up): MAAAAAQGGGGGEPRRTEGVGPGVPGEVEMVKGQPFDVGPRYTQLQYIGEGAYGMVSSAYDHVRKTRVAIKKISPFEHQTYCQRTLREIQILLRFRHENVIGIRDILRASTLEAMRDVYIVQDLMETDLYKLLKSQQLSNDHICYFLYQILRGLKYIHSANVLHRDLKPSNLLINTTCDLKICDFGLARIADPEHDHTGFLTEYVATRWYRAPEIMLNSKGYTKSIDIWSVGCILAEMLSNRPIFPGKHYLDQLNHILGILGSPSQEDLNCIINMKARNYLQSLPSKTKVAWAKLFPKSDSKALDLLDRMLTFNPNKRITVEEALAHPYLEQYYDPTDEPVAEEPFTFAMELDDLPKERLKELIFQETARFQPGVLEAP
T1 sequence (P28482 whole entry, looked up): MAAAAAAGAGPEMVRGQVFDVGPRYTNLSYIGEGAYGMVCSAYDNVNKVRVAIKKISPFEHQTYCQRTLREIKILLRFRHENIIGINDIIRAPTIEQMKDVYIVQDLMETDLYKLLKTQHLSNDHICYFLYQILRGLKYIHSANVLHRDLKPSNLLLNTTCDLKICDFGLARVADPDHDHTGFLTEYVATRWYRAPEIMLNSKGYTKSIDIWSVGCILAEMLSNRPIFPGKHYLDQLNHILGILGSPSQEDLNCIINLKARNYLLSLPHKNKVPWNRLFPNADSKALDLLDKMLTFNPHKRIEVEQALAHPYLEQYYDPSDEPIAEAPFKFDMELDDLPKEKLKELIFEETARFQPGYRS

HepG2 [2] = experiment: Down regulation of ACAT2 gene expression in human HepG2 cells at 1 uM measured after 24 hrs by transcriptional profiling analysis; assay type: functional, cell-based
[3] = Stability in mouse liver microsomes assessed as parent compound remaining at 1 uM incubated for 60 mins under shaking condition by UPLC/MS analysis; assay type: ADME, Microsome; conditions: read-out: Stability
HepG2 [4] = experiment: Up regulation of DUSP1 expression in human HepG2 cells at 1 uM measured after 6 hrs by transcriptional profiling analysis; assay type: functional, cell-based
[5] = Apparent volume of distribution in C57BL/6 mouse liver at 10 mg/kg, ip administered as single dose by mass spectrometry; assay type: ADME, organism-based; conditions: in vivo
HepG2 [6] = experiment: Up regulation of TRIB1 gene expression in human HepG2 cells measured after 6 hrs by qRT-PCR analysis; assay type: functional, cell-based; conditions: HepG2, 6 h
HepG2 [7] = experiment: Up regulation of LDLR expression in human HepG2 cells at 1 uM measured after 6 to 24 hrs by transcriptional profiling analysis; assay type: functional, cell-based
HepG2 [8] = experiment: Up regulation of LDLR gene expression in human HepG2 cells at 2 uM after 6 hrs in presence of simvastatin by qRT-PCR analysis; assay type: functional, cell-based
[9] = Half life in C57BL/6 mouse liver at 10 mg/kg, ip administered as single dose by mass spectrometry; assay type: ADME, organism-based
HepG2 [10] = experiment: Induction of TRIB1 expression in human HepG2 cells assessed as reduction in 13[C3]-D5-glycerol incorporation into C50:2 triglyceride at 2 uM preincubated for 24 hrs followed by 13[C3]-D5-glycerol addition and measured by LC/MS analysis; assay type: functional, cell-based
HepG2 [11] = experiment: Up regulation of FOS expression in human HepG2 cells at 1 uM measured after 6 hrs by transcriptional profiling analysis; assay type: functional, cell-based
[12] = Tmax in C57BL/6 mouse liver at 10 mg/kg, ip administered as single dose by mass spectrometry; assay type: ADME, organism-based
HepG2 [13] = experiment: Up regulation of PCSK9 gene expression in human HepG2 cells at 2 uM after 24 hrs in presence of atorvastatin by qRT-PCR analysis; assay type: functional, cell-based
HepG2 [14] = experiment: Down regulation of APOC3 gene expression in human HepG2 cells at 1 uM measured after 24 hrs by transcriptional profiling analysis; assay type: functional, cell-based
HepG2 [15] = experiment: Down regulation of PCSK9 expression in human HepG2 cells after 24 hrs by ELISA; assay type: functional, cell-based
HepG2 [16] = experiment: Up regulation of ATF3 expression in human HepG2 cells at 1 uM measured after 6 hrs by transcriptional profiling analysis; assay type: functional, cell-based
HepG2 [17] = experiment: Down regulation of PCSK9 gene expression in human HepG2 cells measured after 24 hrs by qRT-PCR analysis; assay type: functional, cell-based; conditions: HepG2, 24 h
[18] = Clearance in C57BL/6 mouse plasma at 10 mg/kg, ip administered as single dose by mass spectrometry; assay type: ADME, organism-based
HepG2 [19] = experiment: Up regulation of LDLR expression in human HepG2 cells at 10 uM measured after 6 hrs in presence of MEK inhibitor U0126 by qRT-PCR analysis; assay type: functional, cell-based
HepG2 [20] = experiment: Up regulation of EGR1 expression in human HepG2 cells at 1 uM measured after 6 hrs by transcriptional profiling analysis; assay type: functional, cell-based
HepG2 [21] = experiment: Up regulation of LDLR gene expression in human HepG2 cells measured after 6 hrs by qRT-PCR analysis relative to control; assay type: functional
[22] = Half life in C57BL/6 mouse plasma at 10 mg/kg, ip administered as single dose by mass spectrometry; assay type: ADME, organism-based
HepG2 [23] = experiment: Down regulation of MVK gene expression in human HepG2 cells at 1 uM measured after 24 hrs by transcriptional profiling analysis; assay type: functional, cell-based
HepG2 [24] = experiment: Up regulation of LDLR gene expression in human HepG2 cells measured after 6 hrs by qRT-PCR analysis; assay type: functional, cell-based; conditions: HepG2, 6 h
HepG2 [25] = experiment: Up regulation of LDLR expression in human HepG2 cells at 10 uM measured after 6 hrs in presence of JAK inhibitor CP-690550 by qRT-PCR analysis; assay type: functional, cell-based
HepG2 [26] = experiment: Induction of LDL uptake in human HepG2 cells preincubated for 20 hrs followed by BODIPY-FL-LDL addition and measured after 5 hrs by Hoechst 33342 staining based microscopic analysis; assay type: functional, cell-based
HepG2 [27] = experiment: Up regulation of TRIB1 gene expression in human HepG2 cells measured after 6 hrs by qRT-PCR analysis relative to control; assay type: functional
HepG2 [28] = experiment: Effect on SREBF2 expression in human HepG2 cells at 1 uM measured after 6 to 24 hrs by transcriptional profiling analysis; assay type: functional, cell-based
HepG2 [29] = experiment: Down regulation of DGAT1 gene expression in human HepG2 cells at 1 uM measured after 24 hrs by transcriptional profiling analysis; assay type: functional, cell-based
HepG2 [30] = experiment: Down regulation of HMGCR gene expression in human HepG2 cells at 1 uM measured after 24 hrs by transcriptional profiling analysis; assay type: functional, cell-based
HepG2 [31] = experiment: Induction of TRIB1 expression in human HepG2 cells assessed as increase in ApoB secretion measured after 24 hrs by ELISA; assay type: functional, cell-based
HepG2 [32] = experiment: Up regulation of TRIB1 expression in human HepG2 cells at 1 uM measured after 6 to 24 hrs by transcriptional profiling analysis; assay type: functional, cell-based
HepG2 [33] = experiment: Down regulation of HMGCS1 gene expression in human HepG2 cells at 1 uM measured after 24 hrs by transcriptional profiling analysis; assay type: functional, cell-based
[34] = Apparent volume of distribution in C57BL/6 mouse plasma at 10 mg/kg, ip administered as single dose by mass spectrometry; assay type: ADME, organism-based; conditions: in vivo
HepG2 [35] = experiment: Effect on SREBF1 expression in human HepG2 cells at 1 uM measured after 6 to 24 hrs by transcriptional profiling analysis; assay type: functional, cell-based
HepG2 [36] = experiment: Down regulation of LSS gene expression in human HepG2 cells at 1 uM measured after 24 hrs by transcriptional profiling analysis; assay type: functional, cell-based
HepG2 [37] = experiment: Down regulation of MOGAT2 gene expression in human HepG2 cells at 1 uM measured after 24 hrs by transcriptional profiling analysis; assay type: functional, cell-based
HepG2 [38] = experiment: Up regulation of LDLR expression in human HepG2 cells after 24 hrs by ELISA; assay type: functional, cell-based
[39] = Cmax in C57BL/6 mouse liver at 10 mg/kg, ip administered as single dose by mass spectrometry; assay type: ADME, organism-based; design: dose 10 mg/kg, route intraperitoneal
[40] = Tmax in C57BL/6 mouse plasma at 10 mg/kg, ip administered as single dose by mass spectrometry; assay type: ADME, organism-based
HepG2 [41] = experiment: Down regulation of MTTP gene expression in human HepG2 cells at 1 uM measured after 24 hrs by transcriptional profiling analysis; assay type: functional, cell-based
HepG2 [42] = experiment: Up regulation of JUN expression in human HepG2 cells at 1 uM measured after 6 hrs by transcriptional profiling analysis; assay type: functional, cell-based
[43] = AUC (infinity) in C57BL/6 mouse liver at 10 mg/kg, ip administered as single dose by mass spectrometry; assay type: ADME, organism-based; design: dose 10 mg/kg, route intraperitoneal, time infinity; conditions: in vivo
HepG2 [44] = experiment: Induction of TRIB1 expression in human HepG2 cells measured after overnight incubation by qRT-PCR analysis; assay type: functional, cell-based
[45] = target: T1, Mitogen-activated protein kinase; ERK1/ERK2 (Homo sapiens); experiment: Activation of ERK1/2 phosphorylation in human HepG2 cells assessed as ratio of phosphorylated ERK1/2 to total ERK1/2 at 2 uM after 30 mins by Western blot analysis relative to control; assay type: cell-based
HepG2 [46] = experiment: Up regulation of JUNB expression in human HepG2 cells at 1 uM measured after 6 hrs by transcriptional profiling analysis; assay type: functional, cell-based
HepG2 [47] = experiment: Up regulation of ZFP36 expression in human HepG2 cells at 1 uM measured after 6 hrs by transcriptional profiling analysis; assay type: functional, cell-based
HepG2 [48] = experiment: Induction of TRIB1 expression in human HepG2 cells assessed as reduction in 13[C3]-D5-glycerol incorporation into C48:2 triglyceride at 2 uM preincubated for 24 hrs followed by 13[C3]-D5-glycerol addition and measured by LC/MS analysis; assay type: functional, cell-based
[49] = Cmax in C57BL/6 mouse plasma at 10 mg/kg, ip administered as single dose by mass spectrometry; assay type: ADME, organism-based; design: dose 10 mg/kg, route intraperitoneal
HepG2 [50] = experiment: Down regulation of PCSK9 gene expression in human HepG2 cells cultured in cholesterol depleted media at 2.5 uM after 24 hrs by qRT-PCR analysis; assay type: functional, cell-based
HepG2 [51] = experiment: Up regulation of LDLR gene expression in human HepG2 cells cultured in cholesterol depleted media at 2.5 uM after 6 hrs by qRT-PCR analysis; assay type: functional, cell-based
[52] = AUC (infinity) in C57BL/6 mouse plasma at 10 mg/kg, ip administered as single dose by mass spectrometry; assay type: ADME, organism-based; design: dose 10 mg/kg, route intraperitoneal, time infinity; conditions: in vivo
[53] = Unbound fraction in C57BL/6 mouse liver at 10 mg/kg, ip administered as single dose by mass spectrometry; assay type: ADME, organism-based
HepG2 [54] = experiment: Induction of LDLR expression in human HepG2 cells by luminex assay; assay type: functional, cell-based
HepG2 [55] = experiment: Inhibition of PCSK9 secretion in human HepG2 cells by luminex assay; assay type: functional, cell-based

## CN1C(=O)c2cc(NC(=O)c3ccc(C(F)(F)F)cc3)ccc2OC[C@@H]2O[C@H](CC(=O)NC3Cc4ccccc4C3)CC[C@@H]21
[1]
  fold change (FC): 2
HepG2 [2]
  Activity: Active
[3]
  remaining at 1 h, 1 µM: 0%
HepG2 [4]
  Activity: Active
[5]
  Vz: 2.81 L/kg
HepG2 [6]
  EC50: 430 nM
HepG2 [7]
  Activity: Active
HepG2 [8]
  Activity: Active
[9]
  half-life: 135 min
HepG2 [10]
  Activity: Active
HepG2 [11]
  Activity: Active
[12]
  Tmax: 4.8 min
HepG2 [13]
  Activity: inactive
HepG2 [14]
  Activity: Active
HepG2 [15]
  Activity: Active
HepG2 [16]
  Activity: Active
HepG2 [17]
  EC50: 240 nM
[18]
  CL/F: 165 mL/min/kg
HepG2 [19]
  Activity: inactive
HepG2 [20]
  Activity: Active
HepG2 [21]
  max activation: 4.8
[22]
  half-life: 97.8 min
HepG2 [23]
  Activity: Active
HepG2 [24]
  EC50: 490 nM
HepG2 [25]
  Activity: Active
HepG2 [26]
  Activity: Active
HepG2 [27]
  max activation: 4.7
HepG2 [28]
  Activity: inactive
HepG2 [29]
  Activity: Active
HepG2 [30]
  Activity: Active
HepG2 [31]
  Activity: Active
HepG2 [32]
  Activity: Active
HepG2 [33]
  Activity: Active
[34]
  Vz: 23.3 L/kg
HepG2 [35]
  Activity: inactive
HepG2 [36]
  Activity: Active
HepG2 [37]
  Activity: Active
HepG2 [38]
  Activity: Active
[39]
  Cmax: 4660 ng/mL
[40]
  Tmax: 1 h
HepG2 [41]
  Activity: Active
HepG2 [42]
  Activity: Active
[43]
  AUC: 11558 µg/L/h
HepG2 [44]
  EC50: 230 nM
[45]
  fold change (FC): 2
HepG2 [46]
  Activity: Active
HepG2 [47]
  Activity: Active
HepG2 [48]
  Activity: Active
[49]
  Cmax: 437 ng/mL
HepG2 [50]
  Activity: Active
HepG2 [51]
  Activity: Active
[52]
  AUC: 1010 µg/L/h
[53]
  fraction unbound: 0.01

## CN1C(=O)c2cc(NC(=O)c3ccc(C(F)(F)F)cc3)ccc2OC[C@@H]2O[C@@H](CC(=O)NC3Cc4ccccc4C3)CC[C@@H]21
HepG2 [54]
  Activity: Active
HepG2 [15]
  Activity: Active
HepG2 [55]
  inhibition: Active
HepG2 [26]
  Activity: Active
HepG2 [38]
  Activity: Active
HepG2 [44]
  EC50: 2030 nM
